Results reported in US12398400B2, “Herbicide-resistant acetyl-CoA carboxylase (ACC) mutant and use thereof” (priority 2020, dated 2025).

Key:
Format in all cases: in vivo
[1] = test system: I1879V edited Oryza sativa plants; assay: Herbicide spray tolerance of I1879V edited plants; settings: for tolerance compared with wild-type control: 5 g.a.i./mu, FIG. 6; for phytotoxicity observed: field seedlings
Protocol: (§1) Multiple Oryza sativa varieties such as Wanzhijing 006, Nanjing 9108, and Jiahe 218 were used as experimental materials. The base editor constructed above was transformed into the Oryza sativa plants by A. tumefaciens to obtain gene-edited plants. Emerging seedlings were screened with a sethoxydim-containing medium at a concentration of SET-2: 2 mg/L. Or, edited seedlings were planted in a cultivation room. The edited seedlings and the control plants were sprayed with sethoxydim at a concentration of 0.5 g/L (corresponding to a field application dosage of 10 g. a.i/mu), and a survival rate of the seedlings was counted 10 d later.
(§2) For I1879V edited Oryza sativa plants, the dosage of sethoxydim was further increased to a corresponding field application dosage of 15 g. a.i/mu. The dosage of sethoxydim was further increased to 30 g. a.i/mu.
(§3) The I1879V and C2186R edited Oryza sativa plants obtained in Example 1 were planted, and the resistance to other types of herbicides was tested, such as phenthodim, quizalofop-p, fenoxaprop-p-ethyl, clethodim, haloxyfop-p-methyl, fenoxaprop, and butyclofen.
(§4) Dibble Oryza sativa plants at the seedling stage in the field were selected and sprayed with phenthodim at 20 g.a.i./mu (4 times a recommended dosage), and then results were observed.
(§5) Quizalofop-p and fenoxaprop-p-ethyl were each applied at 5 g.a.i./mu to I1879V edited plants and C2186R edited plants, and results were observed 14 d later.
The tolerance of the I1879V edited plants to clethodim, haloxyfop-p-methyl, fenoxaprop, and butyclofen was tested, where the clethodim, haloxyfop-p-methyl, and fenoxaprop were each applied at concentrations of 5 g.a.i./mu (1×) and 10 g.a.i./mu (2×); and the butyclofen was applied at concentrations of 10 g.a.i./mu (1×) and 20 g.a.i./mu (2×). After the herbicide was applied for 20 d, the growth of the edited plants was observed and the herbicide resistance of the edited plants was counted.

[2] = test system: C2186R edited Oryza sativa plants; assay: Herbicide spray tolerance of C2186R edited plants; settings: for tolerance compared with wild-type control: 5 g.a.i./mu, 14 d later, FIG. 6
Protocol: as §1
(§6) Through screening cultivation, herbicide-resistant plants were screened out on a sethoxydim-containing medium. […] In addition, herbicide-resistant plants were also screened out in the cultivation room.
as §3, §4, §5

[3] = test system: wild-type Oryza sativa plants; assay: Herbicide spray on wild-type control plants; settings: for phytotoxicity observed: field seedlings
Protocol: as §1, §2, §4

[4] = test system: I1879V edited Oryza sativa plants; assay: Screening of emerging seedlings on sethoxydim-containing medium; settings: 2 mg/L, FIG. 2
Protocol: as §1, §6

[5] = 15 g. a.i/mu, 14 d later, FIG. 4
[6] = 20 g.a.i./mu (4 times recommended dosage), 7 d after spraying
[7] = 20 g.a.i./mu, 20 d after application, FIG. 5

## C[C@@H](Oc1ccc(Oc2cnc3cc(Cl)ccc3n2)cc1)C(=O)O [Quizalofop-p, quizalofop-p]
[1]; 14 d later
  tolerance compared with wild-type control: failed to produce tolerance
[2]
  tolerance compared with wild-type control: failed to produce tolerance

## CCOC(=O)[C@@H](C)Oc1ccc(Oc2nc3ccc(Cl)cc3o2)cc1 [fenoxaprop-p-ethyl]
[1]; 14 d later
  tolerance compared with wild-type control: failed to produce tolerance
[2]
  tolerance compared with wild-type control: failed to produce tolerance

## CCC/C(=N\OCC)C1=C(O)CC(CC(C)SCC)CC1=O (stereo not drawn) [sethoxydim]
[3]; [5]
  state of control plants after herbicide: obviously yellow and dead
[3]; 30 g. a.i/mu, 20 d
  survival of wild-type plants after herbicide: all wild-type plants died
[1]; [5]
  growth of edited material after herbicide: grew normally
[1]; 30 g. a.i/mu, 20 d
  phytotoxicity: about 30%
[4]
  herbicide tolerance of edited seedlings on herbicide-containing medium: able to tolerate the herbicide
[2]; sprayed at 0.5 g/L (field application dosage 10 g. a.i/mu), 10 d, FIG. 3
  herbicide tolerance of edited seedlings after spraying: able to tolerate the herbicide

## phenthodim
[3]; [6]
  phytotoxicity observed: obvious chlorosis and spots
[3]; [7]
  phytotoxicity observed: serious phytotoxicity
[1]; [6]
  phytotoxicity observed: no visible phytotoxicity
[1]; [7]
  phytotoxicity observed: no obvious phytotoxicity
[2]; 20 g.a.i./mu, field seedlings
  phytotoxicity observed: obvious phytotoxicity
